Legend:
Mtb = test: Rhesus macaque latent TB reactivated by SIV; type: in vivo, Rhesus macaques; conditions: then SIV
[1] = system: Mtb within infected macrophages; test: Mtb in infected macrophages: bacterial load and phagosome-to-lysosome translocation; type: cell-based
c-Kit = c-Kit (Homo sapiens, UniProt P10721); conditions: in vivo
[2] = Drug concentration in the blood after administration
mycobacterium [3] = test: In vivo studies with animals infected with mycobacterium
mycobacterium [4] = test: Mice infected with mycobacterium, CFU in the spleen; type: in vivo; conditions: 7 days p.i., FIG. 2
Procedure: Mice infected with mycobacterium were administered […], rifabutin (2.5 mg/kg/day) alone, and/or a combination of both. CFU in the spleen were determined 7 days (p.i.).

[5] = in vivo

Sequence of c-Kit (P10721 26-976): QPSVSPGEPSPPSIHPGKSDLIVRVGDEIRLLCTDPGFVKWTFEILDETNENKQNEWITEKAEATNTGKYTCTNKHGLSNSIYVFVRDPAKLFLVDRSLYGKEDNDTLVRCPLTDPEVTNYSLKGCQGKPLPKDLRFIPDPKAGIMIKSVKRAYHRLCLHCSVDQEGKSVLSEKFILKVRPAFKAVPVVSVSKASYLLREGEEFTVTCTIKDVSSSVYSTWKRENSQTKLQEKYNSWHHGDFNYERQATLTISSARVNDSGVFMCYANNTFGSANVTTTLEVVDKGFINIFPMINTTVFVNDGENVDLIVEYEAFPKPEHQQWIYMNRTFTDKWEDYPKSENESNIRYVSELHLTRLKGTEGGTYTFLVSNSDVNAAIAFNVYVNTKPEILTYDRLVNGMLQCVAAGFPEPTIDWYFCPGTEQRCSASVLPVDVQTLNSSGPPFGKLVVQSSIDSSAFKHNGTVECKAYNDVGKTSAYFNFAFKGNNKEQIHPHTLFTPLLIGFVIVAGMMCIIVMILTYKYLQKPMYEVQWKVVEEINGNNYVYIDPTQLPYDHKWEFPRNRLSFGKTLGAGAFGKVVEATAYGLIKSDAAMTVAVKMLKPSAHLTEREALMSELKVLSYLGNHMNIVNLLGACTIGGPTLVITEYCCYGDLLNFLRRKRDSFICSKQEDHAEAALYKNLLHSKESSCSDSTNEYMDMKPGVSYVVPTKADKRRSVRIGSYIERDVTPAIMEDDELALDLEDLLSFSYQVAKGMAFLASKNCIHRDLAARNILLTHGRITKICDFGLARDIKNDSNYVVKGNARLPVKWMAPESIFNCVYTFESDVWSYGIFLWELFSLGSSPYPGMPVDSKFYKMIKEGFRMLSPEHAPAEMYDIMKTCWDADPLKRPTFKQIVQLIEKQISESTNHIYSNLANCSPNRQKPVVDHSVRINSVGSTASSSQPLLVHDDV

| Structure (SMILES) | survival (Mtb; latent infection for 6-10 weeks, daily treatment, FIG. 3B) | TB reactivation induced by SIV (Mtb; latent infection) | bacterial load in macrophages ([1]; FIG. 1) | translocation of Mtb from the phagosome into the lysosome ([1]; at peak concentration in the micromolar range, depends on Abl) | myelopoiesis (stem cells divide and differentiate along the myeloid lineage) (c-Kit) | numbers of innate immune cells in the blood and organs (c-Kit) | peak concentration [2] | time to peak concentration [2] [h] | amount of granulomatous lesions within the liver (mycobacterium [3]) | bacterial load in macrophages (mycobacterium [3]) | bacterial load (CFU in the spleen) (mycobacterium [4]; 100 mg/kg/day alone) | concentration in the blood [5] [nM] | bacterial load (CFU in the spleen) (mycobacterium [4]; rifabutin 2.5 mg/kg/day alone) |
| --- | --- | --- | --- | --- | --- | --- | --- | --- | --- | --- | --- | --- | --- |
| Cc1ccc(NC(=O)c2ccc(CN3CCN(C)CC3)cc2)cc1Nc1nccc(-c2cccnc2)n1 [imatinib, N-(4-methyl-3-((4-(pyridin-3-yl)pyrimidin-2-yl)amino)phenyl)-4-((4-methylpiperazin-1-yl)methyl)benzamide] | survived | prevents reactivation | decreases bacterial load | induces translocation of Mtb | encourages the stem cells to divide and differentiate along the myeloid lineage | increase | micromolar range | ≤ 6 | reduced the amount of granulomatous lesions | reduced bacterial load in macrophages | decrease in bacterial load | ~100 |  |
| CO[C@H]1/C=C/O[C@@]2(C)Oc3c(C)c(O)c4c(c3C2=O)C2=NC3(CCN(CC(C)C)CC3)NC2=C(NC(=O)/C(C)=C\C=C\[C@H](C)[C@H](O)[C@@H](C)[C@@H](O)[C@@H](C)[C@H](OC(C)=O)[C@@H]1C)C4=O [Rifabutin] |  |  |  |  |  |  |  |  |  |  |  |  | decrease in bacterial load |

Source: patent publication US11517571B2, “Use of kinase inhibitors to manage tuberculosis and other infectious diseases” (priority 2015, dated 2022)
